Assay results reported in patent US7879887B2, “α-amino acid derivatives and medicaments containing the same as an active ingredient” (Nissan Chemical Industries, Ltd., priority 2006, dated 2011).

Columns and labels:
recombinant human βARK1 = target: T1, recombinant human βARK1 (Homo sapiens, UniProt P25098); assay: Inhibitory activity against βARK1 (33P phosphorylation of synthetic peptide); format: biochemical; conditions: recombinant human βARK1, 60 minutes at room temperature
T1 construct: made in house; host or cells: Sf-9 insect cells (baculovirus, pBacPAK8)
T1 sequence (P25098 1-689): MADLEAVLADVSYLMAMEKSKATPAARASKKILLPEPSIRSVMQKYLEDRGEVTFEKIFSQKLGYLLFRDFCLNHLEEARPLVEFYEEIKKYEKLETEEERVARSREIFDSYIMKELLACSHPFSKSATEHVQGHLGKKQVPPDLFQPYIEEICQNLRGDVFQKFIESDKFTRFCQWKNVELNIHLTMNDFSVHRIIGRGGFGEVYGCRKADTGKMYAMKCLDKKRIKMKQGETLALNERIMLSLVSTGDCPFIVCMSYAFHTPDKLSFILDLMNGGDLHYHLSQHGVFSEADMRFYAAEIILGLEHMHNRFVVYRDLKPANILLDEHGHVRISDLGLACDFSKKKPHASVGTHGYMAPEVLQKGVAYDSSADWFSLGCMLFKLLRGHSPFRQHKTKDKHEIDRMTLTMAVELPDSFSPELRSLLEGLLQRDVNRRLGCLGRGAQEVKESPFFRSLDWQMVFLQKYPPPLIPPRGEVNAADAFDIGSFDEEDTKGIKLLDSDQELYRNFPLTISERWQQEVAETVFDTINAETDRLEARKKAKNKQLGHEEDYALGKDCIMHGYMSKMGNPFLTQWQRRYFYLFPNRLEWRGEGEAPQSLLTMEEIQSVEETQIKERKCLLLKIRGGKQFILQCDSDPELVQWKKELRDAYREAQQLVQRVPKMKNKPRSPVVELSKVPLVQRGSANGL
Description: Human βARK1 was amplified by PCR based on the base sequence of human βARK1 mRNA registered in GenBank (Accession No. M80776) using a human leukocyte cDNA library (Gibco BRL Cat. No. 10421-022) as a template. The amplified cDNA fragment was inserted into a pBacPAK8 vector (Clontech) to construct a plasmid.
Recombinant human βARK1 was expressed using the BacPAK Baculovirus Expression System (Clontech, Cat. No. K1601-1). 1×10^6 Sf-9 cells were adhered to a 35 mm dish in 2.5 mL of TMN-FH Insect Medium containing 10 vol % FBS (Pharminogen, Cat. No. PM-21227M) and cultured overnight at 27° C. On the following day, the medium was removed and 500 ng of the above plasmid, BacPAK6 viral DNA cleaved with Bsu36I (5 μL) and 1.5 mL of the same medium mixed with 4 μL of Bacfectin were added followed by culturing for 5 hours, further adding 1.5 mL of medium and subsequently culturing for 5 days. […] The culture supernatant after 5 days was recovered and a plaque assay was carried out to isolate single plaques. These were then infected into Sf-9 cells and the resulting culture supernatant was designated as Passage 1 (1−3×10^11 pfu/mL). Passage 1 was added to 3×10^7 Sf-9 cells to a multiplicity of infection (MOI) of 0.1 (pfu/cell), suspension culturing was carried out for 5 days using a spinner flask, and the resulting culture supernatant was designated as Passage 2 (4×10^10 pfu/mL) and used as a viral liquid for large-volume expression.
Sf-9 cells at 3×10^9 cells/200 mL were infected by adding Passage 2 to an MOI of 100 followed by addition of medium to bring to a liquid volume of 2 L and further culturing for 3 days. After recovering the cells by centrifugation and washing three times with PBS, the cells were suspended in 100 mL of Lysis Buffer (20 mmol/L HEPES-HCl (pH 7.2), 5 mmol/L EDTA, 3 mmol/L phenylmethylsulfonyl fluoride (PMSF)). After lysing the cells by ultrasonic treatment at low temperature, the supernatant was recovered by centrifuging (45,000×g, 15 minutes) (sup1). NaCl was added to the resulting supernatant to a final concentration of 250 mmol/L followed by ultracentrifugation (300,000×g, 60 minutes) and using the subsequent supernatant as a crude cell extract (sup2).
Purification was carried out with reference to the literature (Benovic, J. L., Methods Enzymol. 1991; 200: 351-362; Kim, C. M. et al., Receptor 1993; 3: 39-55; Sohlemann, P. et al., FEBS Letters 1993; 324: 59-62). The crude cell extract was accurately brought to a volume of 400 mL with Buffer C (20 mmol/L HEPES-HCl (pH 7.2), 5 mmol/L EDTA, 0.02 vol % Triton X-100) followed by loading onto a 50 mL SP-Sepharose FF (Amersham Pharmacia Biotech) column equilibrated with Buffer C. […] ETA was carried out on each fraction using anti-GRK2 antibody (Santa-Cruz Cat. No. SC-562) and the positive fractions were collected (GRK2=βARK1). This was then diluted three-fold with Buffer C and loaded on a 5 mL HiTrap Heparin column (Amersham Pharmacia Biotech) column equilibrated with Buffer C. After washing the column with Wash Buffer (100 mmol/L NaCl, Buffer C), the column was eluted with an NaCl concentration gradient (100 to 600 mmol/L NaCl for 100 minutes, flow rate: 1 mL/min). The positive fractions as determined by ETA were collected and stored in a freezer at −80° C.
A synthetic peptide having an amino acid sequence of biotinated-[…] was used in accordance with a previous report (Chen, C. Y. et al., J. Biol. Chem. 1993; 268: 7825-7831). This synthetic peptide can also be synthesized with reference to known synthesis methods (for example, Chen, C. Y. et al., J. Biol. Chem. 1993; 268: 7825-7831, Biochemistry 1991; 30: 5118-5125). 2 μl of a DMSO solution in which the test compound was diluted to as to be […] the final concentration was dispensed into a 96-well plate (round bottom) (Falcon 351190) (final concentration: 4 vol % DMSO). […]

CDK3/Cyclin E complex = target: T2, CDK3/Cyclin E complex (Homo sapiens, UniProt Q00526); assay: In vitro kinase assay, CDK3/Cyclin E complex; format: biochemical; conditions: recombinant protein (Upstate); read-out: CDK3/cyclinE IC50
T2 construct: purchased Upstate Inc. 14-487
T2 sequence (Q00526 whole entry): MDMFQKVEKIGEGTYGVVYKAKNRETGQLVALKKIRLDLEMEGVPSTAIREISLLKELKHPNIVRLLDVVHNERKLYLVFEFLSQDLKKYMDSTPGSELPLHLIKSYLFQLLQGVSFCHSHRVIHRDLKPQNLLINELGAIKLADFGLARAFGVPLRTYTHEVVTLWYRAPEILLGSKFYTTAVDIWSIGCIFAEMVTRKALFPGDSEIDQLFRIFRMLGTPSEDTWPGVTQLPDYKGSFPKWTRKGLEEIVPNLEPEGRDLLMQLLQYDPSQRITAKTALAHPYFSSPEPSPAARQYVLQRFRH
T2 sequence (P24864 whole entry partner): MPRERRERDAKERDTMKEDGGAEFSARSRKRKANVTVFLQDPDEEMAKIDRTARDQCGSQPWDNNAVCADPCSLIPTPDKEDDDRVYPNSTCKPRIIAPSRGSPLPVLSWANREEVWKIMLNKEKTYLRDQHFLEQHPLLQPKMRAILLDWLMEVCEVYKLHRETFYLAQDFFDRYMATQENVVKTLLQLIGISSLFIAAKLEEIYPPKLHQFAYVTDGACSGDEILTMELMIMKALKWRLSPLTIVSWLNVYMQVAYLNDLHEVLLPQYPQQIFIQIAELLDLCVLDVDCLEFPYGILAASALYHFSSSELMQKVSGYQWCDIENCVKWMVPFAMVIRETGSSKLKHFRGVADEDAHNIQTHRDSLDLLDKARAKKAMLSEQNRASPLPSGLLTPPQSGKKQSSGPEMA
Description: (§1) Inhibitory activity against Aurora A, CDK1/Cyclin B complex, CDK2/Cyclin E complex and CDK3/Cyclin E complex were measured by in vitro kinase assay using recombinant proteins.

Aurora A = target: T3, Aurora A (Homo sapiens, UniProt O14965); assay: In vitro kinase assay, Aurora A; format: biochemical; conditions: recombinant protein (Upstate)
T3 construct: purchased Upstate Inc. 14-511
T3 sequence (O14965 1-403): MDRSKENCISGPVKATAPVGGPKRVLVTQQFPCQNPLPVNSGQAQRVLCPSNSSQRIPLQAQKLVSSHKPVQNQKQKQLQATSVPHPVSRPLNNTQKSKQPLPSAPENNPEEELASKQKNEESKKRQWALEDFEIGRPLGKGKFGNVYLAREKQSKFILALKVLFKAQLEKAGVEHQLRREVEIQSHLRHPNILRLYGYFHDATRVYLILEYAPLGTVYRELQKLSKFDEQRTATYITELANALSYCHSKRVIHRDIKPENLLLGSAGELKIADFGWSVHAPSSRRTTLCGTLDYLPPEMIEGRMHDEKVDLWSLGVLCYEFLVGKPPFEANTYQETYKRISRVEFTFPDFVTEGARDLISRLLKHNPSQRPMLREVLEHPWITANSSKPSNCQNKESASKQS
Description: (§2) Inhibitory activity against Aurora A, CDK1/Cyclin B complex, CDK2/Cyclin E complex and CDK3/Cyclin E complex were measured by in vitro kinase assay using recombinant proteins. The assays were carried out by using recombinant proteins (Upstate Inc.) for Aurora A, CDK1/Cyclin B complex, CDK2/Cyclin E complex and CDK3/Cyclin E complex (respective cat. nos. 14-511, 14-450, 14-448 and 14-487), in accordance with the procedure described in the product instructions thereof. The 50% inhibitory concentrations (IC50 values) were calculated by assigning measured values in the case of not containing a test compound to an inhibition of 0%, and assigning measured values in the case of not containing a test compound and enzyme to an inhibition of 100%.

CDK1/Cyclin B complex = target: T4, CDK1/Cyclin B complex (Homo sapiens, UniProt P06493); assay: In vitro kinase assay, CDK1/Cyclin B complex; format: biochemical; conditions: recombinant protein (Upstate)
T4 construct: purchased Upstate Inc. 14-450
T4 sequence (P06493 whole entry): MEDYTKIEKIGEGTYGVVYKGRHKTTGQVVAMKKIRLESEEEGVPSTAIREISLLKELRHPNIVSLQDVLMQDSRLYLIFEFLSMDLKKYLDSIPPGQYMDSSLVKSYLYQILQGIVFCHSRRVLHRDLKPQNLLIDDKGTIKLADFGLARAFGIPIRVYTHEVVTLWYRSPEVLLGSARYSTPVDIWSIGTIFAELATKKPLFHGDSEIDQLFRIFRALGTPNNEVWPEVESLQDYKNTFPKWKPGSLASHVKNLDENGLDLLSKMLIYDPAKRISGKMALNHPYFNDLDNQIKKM
T4 sequence (P14635 whole entry partner): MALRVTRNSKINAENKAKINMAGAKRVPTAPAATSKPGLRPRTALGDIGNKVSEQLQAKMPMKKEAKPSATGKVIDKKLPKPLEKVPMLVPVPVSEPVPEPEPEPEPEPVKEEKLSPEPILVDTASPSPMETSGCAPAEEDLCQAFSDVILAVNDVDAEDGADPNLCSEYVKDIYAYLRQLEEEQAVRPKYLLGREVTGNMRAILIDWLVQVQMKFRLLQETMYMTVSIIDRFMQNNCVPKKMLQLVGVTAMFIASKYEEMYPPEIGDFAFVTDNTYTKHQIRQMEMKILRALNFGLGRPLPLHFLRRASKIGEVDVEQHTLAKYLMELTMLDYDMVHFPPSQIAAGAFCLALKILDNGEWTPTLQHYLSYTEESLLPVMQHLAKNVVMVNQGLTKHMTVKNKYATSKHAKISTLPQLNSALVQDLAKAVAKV
Description: as §2

CDK2/Cyclin E complex = CDK2/Cyclin E complex (Homo sapiens, UniProt P24941); assay: In vitro kinase assay, CDK2/Cyclin E complex; format: biochemical; conditions: recombinant protein (Upstate); read-out: CDK2/cyclinE IC50
Description: as §1

[1] = tested on: colon carcinoma cell line SW620; assay: Cell proliferation inhibitory activity, SW620; format: cell-based, human; conditions: Homo sapiens, SW-620, 96 h, cells counted 4 days later with Cell Counting Kit-8
Description: (§3) Evaluations were carried out using colon carcinoma cell line SW620 (Cat. No. CCL-227), lung carcinoma cell line NCI-H460 (Cat. No. HTB-177), prostate cancer cell line DU 145 (Cat. No. HTB-81), breast cancer cell line MDA-MB-231 (Cat. No. HTB26) and leukemia cell line KG-1a (Cat. No. CCL-246.1) purchased from ATCC, pancreatic cancer cell line MIAPaCa-2 (Cat. No. CRL-1420) purchased from Dainippon Pharmaceutical, and ovarian cancer cell line IGROV1 received from the Netherland Cancer Institute. The cells were cultured under the conditions recommended by the supplier for each cell line, or with respect to IGROV1, according to the method described in Cancer Res. 59: 4559-4563, 1999. Cells suspended in media were added to solutions containing the test substances at various concentrations followed by culturing in a 5% CO2 incubator at 37° C. The numbers of cells were counted 4 days later with the Cell Counting Kit-8. IC50 values were calculated by assigning measured values in the case of not containing a test substance to an inhibition of 0%, and assigning measured values in the case of not containing a test substance or cells to an inhibition of 100%.

[2] = tested on: prostate cancer cell line DU 145; assay: Cell proliferation inhibitory activity, DU 145; format: cell-based, human; conditions: Homo sapiens, 96 h, cells counted 4 days later with Cell Counting Kit-8
Description: as §3

Structure (SMILES) | IC50 (recombinant human βARK1) [µM] | IC50 (CDK3/Cyclin E complex) [µM] | IC50 (Aurora A) [µM] | IC50 (CDK1/Cyclin B complex) [µM] | IC50 (CDK2/Cyclin E complex) [µM] | IC50 [1] [µM] | IC50 [2] [µM]
CC(C)(Nc1ccc(Cl)c(-n2cc[nH]c2=O)c1)C(=O)Nc1nc2c(C(F)(F)F)cc3[nH]ncc3c2s1 [compound 97] | 0.012 | 0.279 | – | – | – | – | –
CC(C)(Nc1cccc(C(=O)NCCC(N)=O)c1)C(=O)Nc1nc2c(C(F)(F)F)cc3[nH]ncc3c2s1 [compound 101] | – | 0.021 | 0.118 | 0.039 | 0.03 | 2 | 4.4
CC(C)(Nc1ccc(Cl)c(C(=O)NCCCS(N)(=O)=O)c1)C(=O)Nc1nc2c(C(F)(F)F)cc3[nH]ncc3c2s1 [compound 102] | – | 0.03 | 0.039 | 0.105 | 0.076 | – | –
CC(C)(Nc1ccc(Cl)c(C(=O)O)c1)C(=O)Nc1nc2c(C(F)(F)F)cc3[nH]ncc3c2s1 [compound 136] | – | 0.099 | 0.019 | 0.446 | 0.295 | – | –
CC(C)(Nc1ccc(Cl)c(C(=O)NCCC(=O)O)c1)C(=O)Nc1nc2c(C(F)(F)F)cc3[nH]ncc3c2s1 [compound 139] | 0.0079 | 0.07 | 0.106 | 0.238 | 0.168 | – | –
CC(C)(Nc1cccc(C(=O)NCCCC(=O)O)c1)C(=O)Nc1nc2c(C(F)(F)F)cc3[nH]ncc3c2s1 [compound 140] | – | 0.16 | 0.247 | 0.446 | 0.428 | – | –
CC(C)(Nc1ccc(Cl)c(C(=O)NCC(=O)O)c1)C(=O)Nc1nc2c(C(F)(F)F)cc3[nH]ncc3c2s1 [compound 145] | 0.0077 | 0.134 | 0.076 | 0.259 | 0.194 | – | –
